Measured values as given in patent US9944019B2, “Tip-loaded microneedle arrays for transdermal insertion” (University of Pittsburgh—Of the Commonwealth System of …, priority 2012, dated 2018).

Tested on: epidermal cells
Assay: Apoptosis in living human skin organ cultures, green fluorescent TUNEL assay
Type: cell-based
Details: arrays removed after 5 minutes, 72 hours of exposure; pyramidal CMC-microneedle arrays
Method: Cytoxan® was integrated at a concentration of 5 mg/g of CMC, enabling delivery of approximately about 140 μg per array. This is a therapeutically relevant concentration based on the area of skin targeted, yet well below levels associated with systemic toxicities. Living human skin organ cultures were used to assess the cytotoxicty of Cytoxan®. Cytoxan® was delivered by application of arrays to skin explants as we previously described. Arrays and residual material were removed 5 minutes after application, and after 72 hours of exposure, culture living skin explants were cryo-sectioned and fixed.

O=P1(N(CCCl)CCCl)NCCCO1 (stereo not shown) [Cytoxan®, cyclophosphamide]
apoptosis (TUNEL): extensive apoptosis of epidermal cells
